Each block holds one molecule with its values, some of them ahead of it.
Experiments:
[1] = Absorption of SAMe salts in rats: areas under the SAMe plasmatic concentration curves (AUC); assay type: in vivo, Sprague Dawley male rats; details: 100 mg of active principle per kg, mean of 5 observations, extrapolated to infinity, 100 mg/kg; for AUC, intestinal administration: introduced into proximal jejunum; for AUC, oral administration: oral administration by gastric probe
Procedure: The absorption was studied on 110 Sprague Dawley male rats of weight 210 g which had fasted since the previous evening.
The products are administered in solution or in a 2% gum arabic aqueous suspension.
For each product, 5 rats are operated under ether anesthesia to allow the substance under examination to be introduced into the proximal jejunum. The wall incision is closed by ligature, and the animals sutured.
The product is administered to a further 5 animals orally by means of a gastric probe.
A blood sample is withdrawn from the caudal vein at the commencement and at 10, 20, 40, 60, 90, 120, 180 and 240 minutes after administration, and the SAMe concentration is determined on the sample by the modified method of Baldessarini and Kopin (J. Neurochem. 13: 769, 1966).
The plasmatic concentration values less the initial values are plotted against time and the areas under the time curves to infinity calculated by the trapezium and curve extrapolation method.
Areas under the SAMe plasmatic concentration curves (AUC) for rats treated intestinally and orally with the listed products at a dosage corresponding to 100 mg of active principle per kg of body weight. The values represent the mean of 5 observations.

[2] = Solubility in water and organic solvents; details: water

SMILES: C[S+](CC[C@H](N)C(=O)[O-])C[C@H]1O[C@@H](n2cnc3c(N)ncnc32)[C@H](O)[C@@H]1O (some centres unmarked) [Example S14, SAMe tri tetradecanesulphonate]
AUC, intestinal administration [1]: 26800 N moles · ml^-1 × min
AUC, oral administration [1]: 9800 N moles · ml^-1 × min

SMILES: C[S+](CC[C@H](N)C(=O)[O-])C[C@H]1O[C@@H](n2cnc3c(N)ncnc32)[C@H](O)[C@@H]1O (some centres unmarked) [SAMe SO4 -PTS, SAMe disulphatep-toluenesulphonate, reference compound]
AUC, intestinal administration [1]: 6700 N moles · ml^-1 × min
AUC, oral administration [1]: 990 N moles · ml^-1 × min

SMILES: C[S+](CC[C@H](N)C(=O)[O-])C[C@H]1O[C@@H](n2cnc3c(N)ncnc32)[C@H](O)[C@@H]1O (some centres unmarked) [Example S16, SAMe tri hexadecanesulphonate]
AUC, intestinal administration [1]: 25300 N moles · ml^-1 × min
AUC, oral administration [1]: 9600 N moles · ml^-1 × min

SMILES: C[S+](CC[C@H](N)C(=O)[O-])C[C@H]1O[C@@H](n2cnc3c(N)ncnc32)[C@H](O)[C@@H]1O (some centres unmarked) [Example S18, SAMe tri octadecanesulphonate]
AUC, intestinal administration [1]: 24100 N moles · ml^-1 × min
AUC, oral administration [1]: 9400 N moles · ml^-1 × min

SMILES: C[S+](CC[C@H](N)C(=O)[O-])C[C@H]1O[C@@H](n2cnc3c(N)ncnc32)[C@H](O)[C@@H]1O (some centres unmarked) [DSS, SAMe tri dioctylsulphosuccinate]
AUC, intestinal administration [1]: 18500 N moles · ml^-1 × min
AUC, oral administration [1]: 8000 N moles · ml^-1 × min

SMILES: C[S+](CC[C@H](N)C(=O)[O-])C[C@H]1O[C@@H](n2cnc3c(N)ncnc32)[C@H](O)[C@@H]1O (some centres unmarked) [DBS, SAMe tri dodecylbenzenesulphonate]
AUC, intestinal administration [1]: 17000 N moles · ml^-1 × min
AUC, oral administration [1]: 7800 N moles · ml^-1 × min

SMILES: C[S+](CC[C@H](N)C(=O)[O-])C[C@H]1O[C@@H](n2cnc3c(N)ncnc32)[C@H](O)[C@@H]1O (some centres unmarked) [Example S012, SAMe tri laurylsulphate]
AUC, intestinal administration [1]: 20800 N moles · ml^-1 × min
AUC, oral administration [1]: 8900 N moles · ml^-1 × min

SMILES: C[S+](CC[C@H](N)C(=O)[O-])C[C@H]1O[C@@H](n2cnc3c(N)ncnc32)[C@H](O)[C@@H]1O (some centres unmarked) [Example S1, SAMe tri methanesulphonate, reference compound]
AUC, intestinal administration [1]: 4400 N moles · ml^-1 × min
AUC, oral administration [1]: 870 N moles · ml^-1 × min

solubility [2]: 10000 µg/mL
SMILES: CCCCCCCCCCCCCCS(=O)(=O)[O-].[Na+]

SMILES: C[S+](CC[C@H](N)C(=O)[O-])C[C@H]1O[C@@H](n2cnc3c(N)ncnc32)[C@H](O)[C@@H]1O (some centres unmarked) [Example S6, SAMe tri hexanesulphonate, reference compound]
AUC, intestinal administration [1]: 6900 N moles · ml^-1 × min
AUC, oral administration [1]: 980 N moles · ml^-1 × min

SMILES: C[S+](CC[C@H](N)C(=O)[O-])C[C@H]1O[C@@H](n2cnc3c(N)ncnc32)[C@H](O)[C@@H]1O (some centres unmarked) [Example S12, SAMe tri dodecanesulphonate]
AUC, intestinal administration [1]: 25500 N moles · ml^-1 × min
AUC, oral administration [1]: 9700 N moles · ml^-1 × min

SMILES: C[S+](CC[C@H](N)C(=O)[O-])C[C@H]1O[C@@H](n2cnc3c(N)ncnc32)[C@H](O)[C@@H]1O (some centres unmarked) [Example S5, SAMe tri pentanesulphonate, reference compound]
AUC, intestinal administration [1]: 4900 N moles · ml^-1 × min
AUC, oral administration [1]: 950 N moles · ml^-1 × min

From patent US5128249A, “Stable sulpho-adenosyl-L-methionine (SAMe) salts, particularly suitable for oral pharmaceutical use” (Bioresearch S.p.a., priority 1984, dated 1992)
